Data as given in patent US20200352905A1, “6-(2,4-DICHLOROPHENYL)-5-[4-[(3S)-1-(3-FLUOROPROPYL)PYRROLIDIN-3-YL]OXYPHENYL]-8,9-DIHYDRO-7H-BENZO[7]ANNULENE-2-CARBOXYLIC ACID FOR USE IN METASTATIC OR ADVANCED BREAST CANCER PATIENTS” (SANOFI, priority 2019, published 2020).

Assays:
[1] = TED14856 Part B (dose expansion, 400 mg QD): safety, TEAEs; type: in vivo, human
Description: Part B: Dose expansion study to evaluate the efficacy, safety, PK and PD of compound (1) administered at the RD (from Part A). […] A BID regimen (without omission on Day 2) may also be explored if found to be needed. Safety population includes all patients exposed to at least one dose of the study treatment. Treatment emergent adverse events (TEAEs) are analyzed according to current version of the Medical Dictionary for Regulatory Activities (MedDRA) dictionary. Laboratory abnormalities are analyzed according to the NCI-CTCAE v.4.03. Type, frequency, seriousness, severity and relatedness of study treatment TEAEs is analyzed on the safety population for each dose level. Similar analyses as for the escalation phase shall be performed.

[2] = test system: ER-positive and HER2-negative advanced breast cancer; assay: TED14856 pooled population (Part A >=150 mg and Part B): post-hoc efficacy analyses and sub-populations; conditions: for Best Overall Response: Complete Response (CR), number of patients / Best Overall Response: Partial Response (PR), % of patients / Best Overall Response: Partial Response (PR), number of patients / Best Overall Response: Progressive Disease (PD), % of patients / Best Overall Response: Progressive Disease (PD), number of patients / Best Overall Response: Stable Disease (SD), % of patients / Best Overall Response: Stable Disease (SD), number of patients / Clinical Benefit Rate, % of patients / Clinical Benefit Rate, number of patients / Overall Response Rate (confirmed CR and PR), % of patients / Overall Response Rate (confirmed CR and PR), number of patients: no prior mTOR, CDK4/6, fulvestrant; for Clinical Benefit Rate (CBR): pooled population
[3] = test system: ER-positive and HER2-negative advanced breast cancer; assay: TED14856 Part B: antitumor activity per RECIST v1.1 by Independent Central Review
Description: ORR: antitumor activity as documented by tumor response (CR or PR) defined by RECIST v1.1 determined by Independent Central Review (ICR).
The signal extinction between baseline and on study treatment ^18FES-PET scans constitute the PD readout of the ER engagement. No ^18FES-PET or FDG PET/CT imaging is performed in Part B.
Patients with an early progression as per RECIST v1.1 or who died from disease progression are evaluable for response.

[4] = All, pooled Part A ≥150 mg and Part B 400 mg (N = 14)
[5] = TED14856 2017-2019, pooled population n=59, setting 2-9L, prior CDK4/6, mTOR, fulvestrant allowed
[6] = TED14856 2017-2019, sub-population n=14, setting 2L+, no prior CDK4/6, mTOR, fulvestrant
[7] = TED14856 2017-2019, sub-population n=32, setting 3L, prior CDK4/6 allowed, prior mTOR not allowed, prior fulvestrant allowed
[8] = sub-population of 14 patients with neither prior targeted therapies nor SERD (3/14)

For O=C(O)c1ccc2c(c1)CCCC(c1ccc(Cl)cc1Cl)=C2c1ccc(O[C@H]2CCN(CCCF)C2)cc1 [compound (1), 6-(2,4-dichlorophenyl)-5-[4-[(3S)-1-(3-fluoropropyl)pyrrolidin-3-yl]oxyphenyl]-8,9-dihydro-7H-benzo[7]annulene-2-carboxylic acid], the “Patients with related Gr3 TEAE: Musculoskeletal pain” value ([1]; Part B, 400 mg, N=49) was 0 n, the “Patients with related Gr3 TEAE: Nasopharyngitis” value ([1]; Part B, 400 mg, N=49) was 0 n and the “Patients with related Gr3 TEAE: Nausea” value ([1]; Part B, 400 mg, N=49) was 0 n. The “Patients with related Gr3 TEAE: Pyrexia” value ([1]; Part B, 400 mg, N=49) was 0 n, the “Patients with related Gr3 TEAE: Rhinitis allergic” value ([1]; Part B, 400 mg, N=49) was 0 n and the “Patients with related Gr3 TEAE: Urinary tract infection” value ([1]; Part B, 400 mg, N=49) was 0 n. The “Patients with related Gr3 TEAE: Vomiting” value ([1]; Part B, 400 mg, N=49) was 0 n, the “Patients with related TEAE: ALT increased” value ([1]; Part B, 400 mg, N=49) was 0 n and the “Patients with related TEAE: AST increased” value ([1]; Part B, 400 mg, N=49) was 0 n. The “Patients with related TEAE: Back pain” value ([1]; Part B, 400 mg, N=49) was 0 n, the “Patients with related TEAE: Headache” value ([1]; Part B, 400 mg, N=49) was 0 n and the “Patients with related TEAE: Nasopharyngitis” value ([1]; Part B, 400 mg, N=49) was 0 n. The “Patients with related TEAE: Pyrexia” value ([1]; Part B, 400 mg, N=49) was 0 n, the “Patients with related TEAE: Rhinitis allergic” value ([1]; Part B, 400 mg, N=49) was 0 n and the “number of SAEs of grade ≥3” value ([1]; Part B, N=49) was 14. For the same compound, the “laboratory abnormality reported as adverse event: alkaline phosphatase increase” value ([1]; Part B, not considered related) was 1, the “laboratory abnormality reported as adverse event: hyperbilirubinemia” value ([1]; Part B, not considered related) was 2 and the “laboratory abnormality reported as adverse event: hypercalcemia” value ([1]; Part B, not considered related) was 1. The “laboratory abnormality reported as adverse event: increase of alanine amino transferase” value ([1]; Part B, not considered related) was 3, the “laboratory abnormality reported as adverse event: increase of aspartate amino transferase” value ([1]; Part B, not considered related) was 3 and the “related serious adverse events” value ([1]; whole study) was “no related serious adverse events”. The “Best Overall Response: Complete Response (CR), number of patients” value (“Best Overall Response: Complete Response” below) ([2]; 400 mg PART B (N = 11)) was 0 n, the “Best Overall Response: Partial Response (PR), % of patients” value ([2]; 400 mg PART B (N = 11)) was “(27.3) %” and the “Best Overall Response: Partial Response (PR), number of patients” value ([2]; 400 mg PART B (N = 11)) was 3 n. The “Best Overall Response: Progressive Disease (PD), % of patients” value (from here on “Best Overall Response … (PD), % of patients”) ([2]; 400 mg PART B (N = 11)) was “(18.2) %”, the “Best Overall Response: Progressive Disease (PD), number of patients” value ([2]; 400 mg PART B (N = 11)) was 2 n and the “Best Overall Response: Stable Disease (SD), % of patients” value ([2]; 400 mg PART B (N = 11)) was “(54.5) %”. For the same compound, the “Best Overall Response: Stable Disease (SD), number of patients” value ([2]; 400 mg PART B (N = 11)) was 6 n, the “Clinical Benefit Rate, % of patients” value ([2]; 400 mg PART B (N = 11)) was “(63.6) %” and the “Clinical Benefit Rate, number of patients” value ([2]; 400 mg PART B (N = 11)) was 7 n. For the same compound, the “Overall Response Rate (confirmed CR and PR), % of patients” value ([2]; 400 mg PART B (N = 11)) was “(27.3) %”, the “Overall Response Rate (confirmed CR and PR), number of patients” value (from here on “Overall Response Rate … number of patients”) ([2]; 400 mg PART B (N = 11)) was 3 n and the “Best Overall Response: Complete Response” value [2, 4] was 0 n. The “Best Overall Response: Partial Response (PR), % of patients” value [2, 4] was “(21.4) %”, the “Best Overall Response: Partial Response (PR), number of patients” value [2, 4] was 3 n and the “Best Overall Response … (PD), % of patients” value [2, 4] was “(21.4) %”. For the same compound, the “Best Overall Response: Progressive Disease (PD), number of patients” value [2, 4] was 3 n, the “Best Overall Response: Stable Disease (SD), % of patients” value [2, 4] was “(57.1) %” and the “Best Overall Response: Stable Disease (SD), number of patients” value [2, 4] was 8 n. The “Clinical Benefit Rate, % of patients” value [2, 4] was “(64.3) %”, the “Clinical Benefit Rate, number of patients” value [2, 4] was 9 n and the “Overall Response Rate (confirmed CR and PR), % of patients” value [2, 4] was “(21.4) %”. For the same compound, the “Overall Response Rate … number of patients” value [2, 4] was 3 n, the CBR [2, 5] was 35.6% and the ORR [2, 5] was 6.8%. For the same compound, the CBR [2, 6] was 64.3%, the ORR [2, 6] was 21.4% and the CBR [2, 7] was 46.9%. For the same compound, the ORR [2, 7] was 12.5%, the “Clinical Benefit Rate (CBR)” value ([2]; ESR1 mutated patients (9/28)) was 32.1% and the “Clinical Benefit Rate (CBR)” value ([2]; patients with wild-type ESR1 (12/30)) was 40.0%. For the same compound, the “Complete Response (CR)” value ([2]; pooled: All, N=59, by investigator) was 0 n, the “Complete Response (CR)” value ([2]; pooled: Part A >=150 mg, N=13, by investigator) was 0 n and the “Complete Response (CR)” value ([2]; pooled: Part B 400 mg, N=46, by investigator) was 0 n. For the same compound, the ORR [2, 8] was 21.4%, the PD [2, 8] was 21.4% and the PRs [2, 8] was 21.4%. For the same compound, the CBR ([2]; sub-population of 14 patients with neither prior targeted therapies nor SERD (9/14)) was 64.3%, the “Complete Response (CR)” value ([2]; ≤3 prior lines, not both chemotherapy and CDK4/6 inhibitor, no mTOR inhibitor: All, N=32) was 0 n and the “Complete Response (CR)” value ([2]; ≤3 prior lines, not both chemotherapy and CDK4/6 inhibitor, no mTOR inhibitor: Part A ≥150 mg, N=6) was 0 n. For the same compound, the “Complete Response (CR)” value ([2]; ≤3 prior lines, not both chemotherapy and CDK4/6 inhibitor, no mTOR inhibitor: Part B 400 mg, N=26) was 0 n, the “Best Overall Response: Complete Response” value ([2]; ≥150 mg PART A (N = 3)) was 0 n and the “Best Overall Response: Partial Response (PR), number of patients” value ([2]; ≥150 mg PART A (N = 3)) was 0 n. For the same compound, the “Best Overall Response … (PD), % of patients” value ([2]; ≥150 mg PART A (N = 3)) was 33.3%, the “Best Overall Response: Progressive Disease (PD), number of patients” value ([2]; ≥150 mg PART A (N = 3)) was 1 n and the “Best Overall Response: Stable Disease (SD), % of patients” value ([2]; ≥150 mg PART A (N = 3)) was 66.7%. For the same compound, the “Best Overall Response: Stable Disease (SD), number of patients” value ([2]; ≥150 mg PART A (N = 3)) was 2 n, the “Clinical Benefit Rate, % of patients” value ([2]; ≥150 mg PART A (N = 3)) was 66.7% and the “Clinical Benefit Rate, number of patients” value ([2]; ≥150 mg PART A (N = 3)) was 2 n. For the same compound, the “Overall Response Rate … number of patients” value ([2]; ≥150 mg PART A (N = 3)) was 0 n, the “Complete Response (CR)” value ([3]; 400 mg, N=46, by ICR) was 0 n and the “Clinical Benefit Rate (CBR) assessed by ICR” value ([3]; ESR1 mutated patients (3/19)) was 15.8%. The “Clinical Benefit Rate (CBR) assessed by ICR” value ([3]; patients with wild-type ESR1 (9/26)) was 34.6%.
